The test addresses T1, Geranylgeranyl pyrophosphate synthase (Homo sapiens, UniProt O95749).
T1 sequence (O95749 whole entry): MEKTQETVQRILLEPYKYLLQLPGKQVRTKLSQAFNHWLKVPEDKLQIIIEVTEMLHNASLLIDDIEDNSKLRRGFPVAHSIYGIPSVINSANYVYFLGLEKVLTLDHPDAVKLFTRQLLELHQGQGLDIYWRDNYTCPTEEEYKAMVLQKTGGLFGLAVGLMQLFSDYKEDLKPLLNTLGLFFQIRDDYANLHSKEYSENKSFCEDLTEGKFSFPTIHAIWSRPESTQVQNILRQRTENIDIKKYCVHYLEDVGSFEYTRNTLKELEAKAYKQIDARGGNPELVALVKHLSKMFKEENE
The experiment in a line: GGPP Synthase Inhibition Assay. The settings on record: pH 7; 37 °C. As to the method:
The inhibitory activity of each test compound was evaluated by monitoring the formation of [14C]GGPP from FPP, using [14C]IPP as the substrate. To confirm the formation of radioactive products, one-dimensional thin-layer chromatography (TLC), with autoradiographic detection of [14C]FPP/[14C]GGPP, was used.

Each structure is given as a SMILES string. pIC50: −log10 of the molar value.

The term pIC50 denotes the negative decadic logarithm of the IC50, by convention in mol/L. A higher pIC50 goes with a low IC50. `CCCCCCCCc1ccc[n+](CC(O)(P(=O)([O-])O)P(=O)(O)O)c1` (configuration not stated) [1-(2-hydrogenphosphonato-2-hydroxy-2-phosphonoethyl)-3-octylpyridin-1-ium]: the pIC50 is 5.86.
`CCCCCCCCCC(O)(P(=O)(O)O)P(=O)(O)O` [(1-hydroxy-1-phosphonodecyl)phosphonic acid] gave a pIC50 of 6.05.

These data come from BindingDB's records for doi:10.1021/jm800325y (National Taiwan University, 2008).
